In BindingDB's records for doi:10.1016/s0960-894x(99)00210-3 (Tartu University, 1999):

Experiment: Inhibitory activity against Protein kinase C beta isoform (PKC) from pig spleen.

| Compound | IC50 |
| --- | --- |
| N=C(N)NCCC[C@H](NC(=O)[C@H](CCCNC(=N)N)NC(=O)[C@H](CCCNC(=N)N)NC(=O)[C@H](CCCNC(=N)N)NC(=O)[C@H](CCCNC(=N)N)NC(=O)[C@H](CCCNC(=N)N)NC(=O)CNC(=O)[C@H]1OC(n2cnc3c(N)ncnc32)[C@H](O)[C@@H]1O)C(=O)O (stereo partly specified) | 10000 nM |
| C[C@H](NC(=O)CCNC(=O)CCNC(=O)[C@H]1OC(n2cnc3c(N)ncnc32)[C@H](O)[C@@H]1O)C(=O)N[C@@H](CCCNC(=N)N)C(=O)N[C@@H](CCCNC(=N)N)C(=O)N[C@@H](CCCNC(=N)N)C(=O)N[C@@H](CCCNC(=N)N)C(=O)N[C@@H](CCCNC(=N)N)C(=O)N[C@@H](CCCNC(=N)N)C(=O)O (stereo partly specified) | 2800 nM |
| CC(=O)NCCCCCC(=O)N[C@@H](CCCN=C(N)N)C(=O)N[C@@H](CCCNC(=N)N)C(=O)N[C@@H](CCCNC(=N)N)C(=O)N[C@@H](CCCNC(=N)N)C(=O)N[C@@H](CCCNC(=N)N)C(=O)N[C@@H](CCCN=C(N)N)C(=O)O [(R)-2-{(R)-2-[2-((R)-2-{(R)-2-[2-(6-Acetylamino-hexanoylamino)-5-guanidino-pentanoylamino]-5-guanidino-pentanoylamino}-5-guanidino-pentanoylamino)-5-guanidino-pentanoylamino]-5-guanidino-pentanoylamino}-5-guanidino-pentanoic acid] | > 100000 nM |
| N=C(N)NCCC[C@H](NC(=O)[C@H](CCCNC(=N)N)NC(=O)[C@H](CCCNC(=N)N)NC(=O)[C@H](CCCNC(=N)N)NC(=O)[C@H](CCCNC(=N)N)NC(=O)[C@H](CCCNC(=N)N)NC(=O)CCCNC(=O)[C@H]1OC(n2cnc3c(N)ncnc32)[C@H](O)[C@@H]1O)C(=O)O (stereo partly specified) | 1500 nM |
| N=C(N)NCCC[C@H](NC(=O)[C@H](CCCNC(=N)N)NC(=O)[C@H](CCCNC(=N)N)NC(=O)[C@H](CCCNC(=N)N)NC(=O)[C@H](CCCNC(=N)N)NC(=O)[C@H](CCCNC(=N)N)NC(=O)CCNC(=O)[C@H]1OC(n2cnc3c(N)ncnc32)[C@H](O)[C@@H]1O)C(=O)O (stereo partly specified) | 3000 nM |
| C[C@H](NC(=O)C[C@H](NC(=O)C[C@H](NC(=O)[C@H]1O[C@@H](n2cnc3c(N)ncnc32)[C@H](O)[C@@H]1O)C(=O)O)C(=O)O)C(=O)N[C@@H](CCCNC(=N)N)C(=O)N[C@@H](CCCNC(=N)N)C(=O)N[C@@H](CCCNC(=N)N)C(=O)N[C@@H](CCCNC(=N)N)C(=O)N[C@@H](CCCNC(=N)N)C(=O)N[C@@H](CCCNC(=N)N)C(=O)O | 27000 nM |
